Here are results for 27 compounds from patent US20240207263A1, “SELECTIVE MODULATORS OF ATAXIA TELA[…] (ATM) KINASE AND USES THEREOF” (priority 2021, published 2024).

The target in one test is ATM (Homo sapiens (Human), UniProt Q13315). As to the kind of experiment: biochemical. It is filed as biochemical.
Chain of ATM (Q13315 whole entry, looked up): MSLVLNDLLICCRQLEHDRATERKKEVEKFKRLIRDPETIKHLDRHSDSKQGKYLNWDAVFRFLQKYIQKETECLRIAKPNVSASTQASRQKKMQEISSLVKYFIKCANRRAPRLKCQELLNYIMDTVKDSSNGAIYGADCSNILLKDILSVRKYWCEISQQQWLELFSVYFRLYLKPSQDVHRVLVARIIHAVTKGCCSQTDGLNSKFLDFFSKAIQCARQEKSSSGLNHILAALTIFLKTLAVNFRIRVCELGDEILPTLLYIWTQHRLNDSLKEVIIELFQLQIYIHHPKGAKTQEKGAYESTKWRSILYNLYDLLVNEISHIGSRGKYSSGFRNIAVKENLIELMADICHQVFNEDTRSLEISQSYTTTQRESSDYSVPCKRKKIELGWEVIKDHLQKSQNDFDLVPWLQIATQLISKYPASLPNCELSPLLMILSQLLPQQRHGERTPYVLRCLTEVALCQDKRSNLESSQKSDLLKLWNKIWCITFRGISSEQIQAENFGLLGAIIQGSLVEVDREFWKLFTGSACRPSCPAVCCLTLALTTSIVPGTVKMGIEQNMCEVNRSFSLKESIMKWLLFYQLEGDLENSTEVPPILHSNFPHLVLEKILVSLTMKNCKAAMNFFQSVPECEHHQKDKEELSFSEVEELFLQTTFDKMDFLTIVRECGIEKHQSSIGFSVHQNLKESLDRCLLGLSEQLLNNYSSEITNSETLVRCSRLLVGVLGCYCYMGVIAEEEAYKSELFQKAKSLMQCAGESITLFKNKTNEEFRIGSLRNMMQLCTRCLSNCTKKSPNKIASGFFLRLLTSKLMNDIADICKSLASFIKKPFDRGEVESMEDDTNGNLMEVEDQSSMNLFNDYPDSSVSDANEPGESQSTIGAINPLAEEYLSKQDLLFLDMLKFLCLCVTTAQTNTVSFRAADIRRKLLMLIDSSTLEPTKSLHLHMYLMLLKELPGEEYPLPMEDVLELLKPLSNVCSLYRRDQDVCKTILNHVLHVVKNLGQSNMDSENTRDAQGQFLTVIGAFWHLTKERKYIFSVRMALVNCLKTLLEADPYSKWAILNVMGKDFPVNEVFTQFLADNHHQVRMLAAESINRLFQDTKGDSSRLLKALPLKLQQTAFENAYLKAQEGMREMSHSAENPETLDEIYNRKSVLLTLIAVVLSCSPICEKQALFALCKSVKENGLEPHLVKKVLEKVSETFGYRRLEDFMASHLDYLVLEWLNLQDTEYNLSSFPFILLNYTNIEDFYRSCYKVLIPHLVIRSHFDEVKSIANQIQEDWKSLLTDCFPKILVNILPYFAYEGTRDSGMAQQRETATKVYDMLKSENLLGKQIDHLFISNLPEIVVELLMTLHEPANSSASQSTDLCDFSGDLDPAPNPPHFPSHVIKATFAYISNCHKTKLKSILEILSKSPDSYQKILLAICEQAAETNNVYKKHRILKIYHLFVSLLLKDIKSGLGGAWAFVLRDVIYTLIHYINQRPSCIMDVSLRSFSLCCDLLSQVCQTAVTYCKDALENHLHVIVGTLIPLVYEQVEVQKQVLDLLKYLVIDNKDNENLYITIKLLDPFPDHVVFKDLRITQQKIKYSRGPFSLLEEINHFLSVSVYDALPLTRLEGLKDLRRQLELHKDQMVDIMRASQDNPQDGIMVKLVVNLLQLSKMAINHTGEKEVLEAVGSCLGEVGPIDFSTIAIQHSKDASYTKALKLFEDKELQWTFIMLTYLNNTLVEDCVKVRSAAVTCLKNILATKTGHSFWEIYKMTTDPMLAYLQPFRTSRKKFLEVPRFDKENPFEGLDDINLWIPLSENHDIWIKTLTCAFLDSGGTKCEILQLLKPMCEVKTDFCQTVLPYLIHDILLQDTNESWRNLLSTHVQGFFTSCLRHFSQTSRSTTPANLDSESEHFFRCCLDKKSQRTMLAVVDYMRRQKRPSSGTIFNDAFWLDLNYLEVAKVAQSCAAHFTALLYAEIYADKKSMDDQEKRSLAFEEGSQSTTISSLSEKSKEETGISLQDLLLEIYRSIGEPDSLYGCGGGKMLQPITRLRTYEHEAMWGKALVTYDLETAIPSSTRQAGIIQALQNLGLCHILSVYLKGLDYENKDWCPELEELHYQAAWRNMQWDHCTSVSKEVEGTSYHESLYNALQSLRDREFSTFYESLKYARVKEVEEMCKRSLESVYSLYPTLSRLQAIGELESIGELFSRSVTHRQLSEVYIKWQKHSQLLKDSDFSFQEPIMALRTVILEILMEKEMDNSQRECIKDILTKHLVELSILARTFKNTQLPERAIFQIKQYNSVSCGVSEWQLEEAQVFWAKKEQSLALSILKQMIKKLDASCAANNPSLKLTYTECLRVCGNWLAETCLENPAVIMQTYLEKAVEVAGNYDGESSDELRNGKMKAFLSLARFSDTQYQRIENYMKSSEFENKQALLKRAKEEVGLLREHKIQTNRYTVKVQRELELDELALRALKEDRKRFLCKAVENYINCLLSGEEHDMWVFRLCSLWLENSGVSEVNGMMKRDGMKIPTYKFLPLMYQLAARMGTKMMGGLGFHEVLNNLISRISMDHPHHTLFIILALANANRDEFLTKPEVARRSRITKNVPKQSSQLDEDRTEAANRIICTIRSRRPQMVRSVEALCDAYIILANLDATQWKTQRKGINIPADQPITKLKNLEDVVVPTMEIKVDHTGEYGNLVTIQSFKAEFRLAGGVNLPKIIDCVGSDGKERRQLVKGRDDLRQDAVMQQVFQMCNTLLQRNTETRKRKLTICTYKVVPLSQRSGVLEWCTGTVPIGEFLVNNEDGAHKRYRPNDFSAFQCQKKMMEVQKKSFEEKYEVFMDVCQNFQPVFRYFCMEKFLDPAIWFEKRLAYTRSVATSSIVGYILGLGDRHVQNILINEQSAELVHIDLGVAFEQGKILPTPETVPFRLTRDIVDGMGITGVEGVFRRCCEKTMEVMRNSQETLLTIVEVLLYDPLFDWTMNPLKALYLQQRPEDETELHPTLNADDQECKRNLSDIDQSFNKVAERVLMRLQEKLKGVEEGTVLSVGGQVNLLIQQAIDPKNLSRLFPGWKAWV
Settings: not given
The source says:
Assay a): ATM Biochemical Potency
Data was collected by Caliper.
The compound `Cn1c(=O)n(C2CCOCC2)c2c3cc(-c4ccc(COCCN5CCC6(CC6)C5)nc4)ccc3nnc21` [Example 94, 8-(6-((2-(5-azaspiro[2.4]heptan-5-yl)ethoxy)methyl)pyridin-3-yl)-3-methyl-1-(tetrahydro-2H-pyran-4-yl)-1H-imidazo[4,5-c]cinnolin-2(3H)-one] registered an IC50 of 24 nM.

On to `C[C@@H](OCCN1CCC2(COC2)C1)c1ccc(-c2ccc3nnc4c(c3c2)n(C2CCOCC2)c(=O)n4C)cn1` [Example 116, (R)-8-(6-(1-(2-(2-oxa-6-azaspiro[3.4]octan-6-yl)ethoxy)ethyl)pyridin-3-yl)-3-methyl-1-(tetrahydro-2H-pyran-4-yl)-1H-imidazo[4,5-c]cinnolin-2(3H)-one], for which the IC50 is 2.9 nM.

Staying with this test, now noted: read-out: ATM IC50.
Consider `CC(C)n1c(=O)n(C)c2nnc3ccc(-c4ccc([C@@H](C)OCCN5CC6(COC6)C5)nc4)cc3c21` [Example 81, (R)-8-(6-(1-(2-(2-oxa-6-azaspiro[3.3]heptan-6-yl)ethoxy)ethyl)pyridin-3-yl)-1-isopropyl-3-methyl-1H-imidazo[4,5-c]cinnolin-2(3H)-one], for which the IC50 is 3 nM. Take `CC(C)n1c(=O)n(C)c2nnc3ccc(-c4ccc([C@@H](C)OCCN5CCC6(CCO6)CC5)nc4)cc3c21` [Example 82, (R)-8-(6-(1-(2-(1-oxa-7-azaspiro[3.5]nonan-7-yl)ethoxy)ethyl)pyridin-3-yl)-1-isopropyl-3-methyl-1H-imidazo[4,5-c]cinnolin-2(3H)-one]: the IC50 was found to be 3.4 nM.

As for `CC(C)n1c(=O)n(C)c2nnc3ccc(-c4ccc([C@@H](C)OCCN5CCC(C6COC6)CC5)nc4)cc3c21` [Example 83, (R)-1-isopropyl-3-methyl-8-(6-(1-(2-(4-(oxetan-3-yl)piperidin-1-yl)ethoxy)ethyl)pyridin-3-yl)-1H-imidazo[4,5-c]cinnolin-2(3H)-one], the IC50 came to 2.4 nM.

`CC(C)n1c(=O)n(C)c2nnc3ccc(-c4ccc([C@@H](C)OCCN5CCC(C(F)(F)F)CC5)nc4)cc3c21` [Example 84, (R)-1-isopropyl-3-methyl-8-(6-(1-(2-(4-(trifluoromethyl)piperidin-1-yl)ethoxy)ethyl)pyridin-3-yl)-1H-imidazo[4,5-c]cinnolin-2(3H)-one]: the IC50 was 1.9 nM. Still for that read-out and setting: the same measure for `COC[C@@H]1CCN(CCO[C@H](C)c2ccc(-c3ccc4nnc5c(c4c3)n(C(C)C)c(=O)n5C)cn2)C1` [Example 85, 1-isopropyl-8-(6-((R)-1-(2-((R)-3-(methoxymethyl)pyrrolidin-1-yl)ethoxy)ethyl)pyridin-3-yl)-3-methyl-1H-imidazo[4,5-c]cinnolin-2(3H)-one]: 3.4 nM. For `CC(C)n1c(=O)n(C)c2nnc3ccc(-c4ccc([C@@H](C)OCCN5CCCCC5)nc4)cc3c21` [Example 87, (R)-1-isopropyl-3-methyl-8-(6-(1-(2-(piperidin-1-yl)ethoxy)ethyl)pyridin-3-yl)-1H-imidazo[4,5-c]cinnolin-2(3H)-one], the IC50 is 8.2 nM.

On to `CC(C)n1c(=O)n(C)c2nnc3ccc(-c4ccc([C@@H](C)OCCN5CCC6(CCC6)C5)nc4)cc3c21` [Example 89, (R)-8-(6-(1-(2-(6-azaspiro[3.4]octan-6-yl)ethoxy)ethyl)pyridin-3-yl)-1-isopropyl-3-methyl-1H-imidazo[4,5-c]cinnolin-2(3H)-one], for which the IC50 is 1.6 nM. As for `CC(C)n1c(=O)n(C)c2nnc3ccc(-c4ccc([C@@H](C)OCCN5CCC(C)(C#N)C5)nc4)cc3c21` (stereo partly drawn) [Example 90, 1-(2-((R)-1-(5-(1-isopropyl-3-methyl-2-oxo-2,3-dihydro-1H-imidazo[4,5-c]cinnolin-8-yl)pyridin-2-yl)ethoxy)ethyl)-3-methylpyrrolidine-3-carbonitrile], the IC50 is 11 nM. Still for that read-out and setting: the result for `CC(C)n1c(=O)n(C)c2nnc3ccc(-c4ccc([C@@H](C)OCCN5CCC(C#N)CC5)nc4)cc3c21` [Example 91, (R)-1-(2-(1-(5-(1-isopropyl-3-methyl-2-oxo-2,3-dihydro-1H-imidazo[4,5-c]cinnolin-8-yl)pyridin-2-yl)ethoxy)ethyl)piperidine-4-carbonitrile] reads 8.5 nM; that for `CC(C)OC1CCN(CCO[C@H](C)c2ccc(-c3ccc4nnc5c(c4c3)n(C(C)C)c(=O)n5C)cn2)CC1` [Example 92, (R)-8-(6-(1-(2-(4-isopropoxypiperidin-1-yl)ethoxy)ethyl)pyridin-3-yl)-1-isopropyl-3-methyl-1H-imidazo[4,5-c]cinnolin-2(3H)-one], 1.5 nM; that for `CC(C)O[C@@H]1CCN(CCO[C@H](C)c2ccc(-c3ccc4nnc5c(c4c3)n(C(C)C)c(=O)n5C)cn2)C1` [Example 93, 8-(6-((R)-1-(2-((R)-3-isopropoxypyrrolidin-1-yl)ethoxy)ethyl)pyridin-3-yl)-1-isopropyl-3-methyl-1H-imidazo[4,5-c]cinnolin-2(3H)-one], 4.9 nM.

On to `Cn1c(=O)n(C2CCOCC2)c2c3cc(-c4ccc(COCCN5CCC(F)CC5)nc4)ccc3nnc21` [Example 95, 8-(6-((2-(4-fluoropiperidin-1-yl)ethoxy)methyl)pyridin-3-yl)-3-methyl-1-(tetrahydro-2H-pyran-4-yl)-1H-imidazo[4,5-c]cinnolin-2(3H)-one], for which the IC50 was found to be 47 nM.

On to `Cn1c(=O)n(C2CCOCC2)c2c3cc(-c4ccc(COCCN5CCC(C)(C)CC5)nc4)ccc3nnc21` [Example 96, 8-(6-((2-(4,4-dimethylpiperidin-1-yl)ethoxy)methyl)pyridin-3-yl)-3-methyl-1-(tetrahydro-2H-pyran-4-yl)-1H-imidazo[4,5-c]cinnolin-2(3H)-one], for which the IC50 was 17 nM. For the compound `Cn1c(=O)n(C2CCOCC2)c2c3cc(-c4ccc(COCCN5CC6CC6C5)nc4)ccc3nnc21` (stereo not drawn) [Example 98, 8-(6-((2-(3-azabicyclo[3.1.0]hexan-3-yl)ethoxy)methyl)pyridin-3-yl)-3-methyl-1-(tetrahydro-2H-pyran-4-yl)-1H-imidazo[4,5-c]cinnolin-2(3H)-one], the IC50 stood at 62 nM.

As for `Cn1c(=O)n(C2CCOCC2)c2c3cc(-c4ccc(COCCN5CC[C@@H](OC(F)F)C5)nc4)ccc3nnc21` [Example 99, (R)-8-(6-((2-(3-(difluoromethoxy)pyrrolidin-1-yl)ethoxy)methyl)pyridin-3-yl)-3-methyl-1-(tetrahydro-2H-pyran-4-yl)-1H-imidazo[4,5-c]cinnolin-2(3H)-one], the IC50 is 40 nM.

`Cn1c(=O)n(C2CCOCC2)c2c3cc(-c4ccc(COCCN5CC[C@H](OC(F)F)C5)nc4)ccc3nnc21` [Example 100, (S)-8-(6-((2-(3-(difluoromethoxy)pyrrolidin-1-yl)ethoxy)methyl)pyridin-3-yl)-3-methyl-1-(tetrahydro-2H-pyran-4-yl)-1H-imidazo[4,5-c]cinnolin-2(3H)-one]: the IC50 turned out to be 16 nM. For the compound `Cn1c(=O)n(C2CCOCC2)c2c3cc(-c4ccc(COCCN5CCC(OC(F)(F)F)CC5)nc4)ccc3nnc21` [Example 101, 3-methyl-1-(tetrahydro-2H-pyran-4-yl)-8-(6-((2-(4-(trifluoromethoxy)piperidin-1-yl)ethoxy)methyl)pyridin-3-yl)-1H-imidazo[4,5-c]cinnolin-2(3H)-one], the IC50 amounted to 3.7 nM. Same read-out and setting: the same measure for `C[C@@H](OCCN1CC2CC2C1)c1ccc(-c2ccc3nnc4c(c3c2)n(C2CCOCC2)c(=O)n4C)cn1` (stereo partly drawn) [Example 104, 8-(6-((1R)-1-(2-(3-azabicyclo[3.1.0]hexan-3-yl)ethoxy)ethyl)pyridin-3-yl)-3-methyl-1-(tetrahydro-2H-pyran-4-yl)-1H-imidazo[4,5-c]cinnolin-2(3H)-one]: 19 nM; for `C[C@@H](OCCN1CCC(F)CC1)c1ccc(-c2ccc3nnc4c(c3c2)n(C2CCOCC2)c(=O)n4C)cn1` [Example 108]: 3.7 nM; for `C[C@@H](OCCN1CCC(OC(F)(F)F)CC1)c1ccc(-c2ccc3nnc4c(c3c2)n(C2CCOCC2)c(=O)n4C)cn1` [Example 109, (R)-3-methyl-1-(tetrahydro-2H-pyran-4-yl)-8-(6-(1-(2-(4-(trifluoromethoxy)piperidin-1-yl)ethoxy)ethyl)pyridin-3-yl)-1H-imidazo[4,5-c]cinnolin-2(3H)-one]: 2.1 nM. Take `C[C@@H](OCCN1CCC(C)(C)C1)c1ccc(-c2ccc3nnc4c(c3c2)n(C2CCOCC2)c(=O)n4C)cn1` [Example 111, (R)-8-(6-(1-(2-(3,3-dimethylpyrrolidin-1-yl)ethoxy)ethyl)pyridin-3-yl)-3-methyl-1-(tetrahydro-2H-pyran-4-yl)-1H-imidazo[4,5-c]cinnolin-2(3H)-one]: the IC50 turned out to be 12 nM.

As to `CC(C)O[C@@H]1CCN(CCO[C@H](C)c2ccc(-c3ccc4nnc5c(c4c3)n(C3CCOCC3)c(=O)n5C)cn2)C1` [Example 113, 8-(6-((R)-1-(2-((R)-3-isopropoxypyrrolidin-1-yl)ethoxy)ethyl)pyridin-3-yl)-3-methyl-1-(tetrahydro-2H-pyran-4-yl)-1H-imidazo[4,5-c]cinnolin-2(3H)-one], the IC50 worked out at 7.5 nM. With `COC[C@@H]1CCN(CCO[C@H](C)c2ccc(-c3ccc4nnc5c(c4c3)n(C3CCOCC3)c(=O)n5C)cn2)C1` [Example 119, 8-(6-((R)-1-(2-((R)-3-(methoxymethyl)pyrrolidin-1-yl)ethoxy)ethyl)pyridin-3-yl)-3-methyl-1-(tetrahydro-2H-pyran-4-yl)-1H-imidazo[4,5-c]cinnolin-2(3H)-one], the IC50 came out at 2.4 nM. With `C[C@@H](OCCN1CCCCC1)c1ccc(-c2ccc3nnc4c(c3c2)n(C2CCOCC2)c(=O)n4C)cn1` [Example 120, (R)-3-methyl-8-(6-(1-(2-(piperidin-1-yl)ethoxy)ethyl)pyridin-3-yl)-1-(tetrahydro-2H-pyran-4-yl)-1H-imidazo[4,5-c]cinnolin-2(3H)-one], the IC50 is 11 nM. As to `C[C@@H](OCCN1CCCC1)c1ccc(-c2ccc3nnc4c(c3c2)n(C2CCOCC2)c(=O)n4C)cn1` [Example 121, (R)-3-methyl-8-(6-(1-(2-(pyrrolidin-1-yl)ethoxy)ethyl)pyridin-3-yl)-1-(tetrahydro-2H-pyran-4-yl)-1H-imidazo[4,5-c]cinnolin-2(3H)-one], the IC50 turned out to be 13 nM.

In general, IC50 refers to the concentration that inhibits the measured activity by half.
